Data on 2 compounds can be found in patent publication US7700560B2 (University of Maryland, Baltimore County, priority 2003, dated 2010).

The test system of test [1] is DMS114 lung and DU145 prostate xenografts. The settings on record: dicyclopentyl diester; cited from earlier work.
Test [2] concerns lung tumor cell lines NCI-H460, NCI-H226, A549, NCI-H23, DMS273, DMS114, NCI-H522. The settings on record: dicyclopentyl diester; cited from earlier work.
The target in another test is T1, bovine liver GlxII (Bos taurus, UniProt Q3B7M2).
T1 construct: yeast GlxI (yGlxI) and bovine liver GlxII (bGlXII); from tissue; host or cells: bovine liver
Briefly: Competitive inhibition constants (Kis) with bovine liver GlxII. To be noted: sodium phosphate buffer, 50 mM, pH 7, 25° C.; mean (±S.D.) duplicate; read-out: Ki, bGlxII. It is filed as biochemical.

The subject of another test is GSH peroxidase. As to the kind of experiment: Inhibition of GSH peroxidase. It is filed as biochemical. The settings on record: up to an inhibitor concentration of 20 μM.
Another test addresses T2, yeast GlxI (Saccharomyces cerevisiae, UniProt P50107).
T2 sequence (P50107 1-326): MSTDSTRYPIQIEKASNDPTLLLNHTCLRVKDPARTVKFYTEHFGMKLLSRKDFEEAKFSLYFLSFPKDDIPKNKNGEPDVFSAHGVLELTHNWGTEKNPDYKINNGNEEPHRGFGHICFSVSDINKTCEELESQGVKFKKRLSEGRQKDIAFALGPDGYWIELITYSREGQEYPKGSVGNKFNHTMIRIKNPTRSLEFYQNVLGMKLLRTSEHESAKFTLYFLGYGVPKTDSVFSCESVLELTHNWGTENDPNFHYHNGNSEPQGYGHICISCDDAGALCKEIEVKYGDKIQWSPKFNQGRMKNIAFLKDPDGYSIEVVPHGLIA
As to the kind of experiment: Competitive inhibition constants (Kis) with yeast GlxI. The format is biochemical. The settings on record: sodium phosphate buffer, 50 mM, pH 7, 25° C.; mean (±S.D.) duplicate; read-out: Ki, yGlxI. How it is done:
(§1) Competitive inhibition constants (Kis) of bivalent and monovalent enzyme inhibitors with human GlxI or yeast GlxI (yGlxI) were obtained from the change in the initial rates of product formation at various concentrations of the substrate in the presence or absence of the inhibitor. To a 1 ml cuvette containing 50 mM sodium phosphate buffer, pH 7.0, 0.5 mM EDTA, 25° C. and different concentrations of thiohemiacetal substrates with fixed concentrations of inhibitor was added approximately 0.02 U of enzyme. The initial rates of product formation were followed on the basis of the increase in absorbancy at 240 nm. Inhibition constants were obtained by fitting the initial rate data to the equation for competitive inhibition.

Another test addresses T3, human GlxI (Homo sapiens, UniProt Q04760).
T3 construct: hGlxI from human erythrocytes; from tissue; host or cells: human erythrocytes
T3 sequence (Q04760 2-184 limits assumed): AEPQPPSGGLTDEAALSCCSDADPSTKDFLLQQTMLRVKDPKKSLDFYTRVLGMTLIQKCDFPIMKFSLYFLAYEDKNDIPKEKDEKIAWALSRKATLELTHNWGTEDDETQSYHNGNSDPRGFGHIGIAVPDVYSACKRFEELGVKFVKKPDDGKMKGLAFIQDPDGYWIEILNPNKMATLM
As to the kind of experiment: Competitive inhibition constants (Kis) with human GlxI. The format is biochemical. As to the method:
as §1

Test [3] has as its target T4, human placental GSH transferase (Homo sapiens, UniProt P09211).
T4 construct: human placental GSH transferase; from tissue; host or cells: human placenta
As to the kind of experiment: Inhibition of human placental GSH transferase. The format is biochemical. The settings on record: up to an inhibitor concentration of 20 μM.

T4 sequence (P09211 2-210 limits assumed): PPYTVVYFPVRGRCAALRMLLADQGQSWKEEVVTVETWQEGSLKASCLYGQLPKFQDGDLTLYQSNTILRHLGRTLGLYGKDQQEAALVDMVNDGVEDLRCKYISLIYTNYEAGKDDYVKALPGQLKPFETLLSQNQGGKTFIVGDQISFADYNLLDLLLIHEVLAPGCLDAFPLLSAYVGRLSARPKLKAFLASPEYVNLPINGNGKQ

Consider `NC(CCC(=O)NC(CSCc1ccc(Br)cc1)C(=O)NCC(=O)OC1CCCC1)C(=O)OC1CCCC1` (stereo not shown), for which the “inhibition of DMS144 and human prostate DU145 xenografts in nude mice” value in test [1] was “effectively inhibited”. Besides, in test [2], the “inhibition of lung tumor cell lines in vitro” value is listed as “effectively inhibited”.
For `O=C(O)CNC(=O)[C@H](CSC(=O)N(O)c1ccc(Cl)cc1)NC(=O)CC[C@H](NC(=O)CCNC(=O)CCNC(=O)CCNC(=O)CCNC(=O)CCNC(=O)CCNC(=O)CCCCCCC(=O)NCCC(=O)NCCC(=O)NCCC(=O)NCCC(=O)NCCC(=O)NCCC(=O)N[C@@H](CCC(=O)N[C@@H](CSC(=O)N(O)c1ccc(Cl)cc1)C(=O)NCC(=O)O)C(=O)O)C(=O)O` [[CHG(β-Ala)n]2sub., n = 6, [CHG (β-ala)6]2suberate diamide], the Ki stood at 142 ± 1 nM at bovine liver GlxII; 7200 ± 100 nM at yeast GlxI; 0.96 ± 0.06 nM at human GlxI (sodium phosphate buffer, 50 mM, pH 7, 25° C., mean (±S.D.) triplicate, read-out: Ki, hGlxI). Moreover, the “inhibitory activity on GSH peroxidase” value with GSH peroxidase is “no inhibitory activity”. In addition, on human GlxI (hGlxI from human erythrocytes, reciprocal plot FIG. 4), the “mode of inhibition of hGlxI” value was “competitive inhibitor”. In addition, on human GlxI (ratio of Ki bGlxII / hGlxI), the “binding selectivity hGlxI versus bGlxII” value worked out at 148 fold. In addition, at human GlxI (ratio of Ki yGlxI / hGlxI), the “binds more tightly to hGlxI than to yGlxI” value is listed as “about 7500 fold”. Moreover, the “inhibitory activity on human placental GSH transferase” value in test [3] is “no inhibitory activity”.

The term Ki denotes a dissociation constant, usually derived from enzyme kinetics or from competition with a known ligand.
